Laboratory results reported in paper PMC6271500, “Bowman-Birk Protease Inhibitor from Vigna unguiculata Seeds Enhances the Action of Bradykinin-Related Peptides” (Molecules, 2014).

Assays:
[1] = Dynamic light scattering, free peptides and free BTCI; format: physicochemical; details: 25 µM, 2 mM Tris-HCl pH 7.4, 37 °C
Procedure: The hydrodynamic properties of the BTCI through the complex formation with Bk and analogues were monitored using DLS technique with laser source operated at 800 nm on the DynaPro LSR model (Wyatt Technology Corporation, Santa Barbara, CA, USA). The internal temperature was controlled by a Peltier system coupled to the detector. The Bk, Bk-related peptides, BTCI and BTCI-Bk, BTCI-Bk-related peptides complexes, were incubated for 30 minutes in 2 mM Tris-HCl pH 7.4 and then centrifuged at 5000 g and filtered ([…]) before the DLS experiments. The average of 100 acquisitions for each measure was considered for BTCI (25 µM) and synthetic Bk-related peptides (25 µM) separately and subsequently for the BTCI-Bk complexes (1:1). The formation of complexes was analyzed at 37 °C, considering the relationship of the scattered light intensity signal and the hydrodynamic diameter of the samples, using the Dynamics V6 program (Wyatt Technology Corporation).

[2] = Cardiovascular effects of infusion of Bk and Bk-related peptides with BTCI or vehicle in anesthetized rats; format: in vivo, male Wistar rats; details: for aortic vasodilation (change in AVC) / change in mean arterial pressure (MAP) / renal vasodilation (change in RVC): from the baseline value, mean ± SEM, 6 experiments
Procedure: All experiments were conducted on adult male Wistar rats (280–350 g). They were obtained from the central animal house of the Federal University of Goiás. Experimental procedures were designed with strict adherence to the National Health Institute Guidelines for Care and Use of Laboratory Animals as approved by the Ethics Committee, Federal University of Goiás (034/12).
On the day of experiments, the rats were anesthetized with halothane (2%–3% in 100% O2; Cristália Ltda, Itapira, SP, Brazil) prior to the catheterization of the right femoral vein and artery. After the catheter placement, the rats were removed from the halothane and the anesthesia was maintained with urethane (1.2 g·kg^−1 b.wt., i.v.; Sigma-Aldrich Co.). The trachea was cannulated to reduce airway resistance. The body temperature was kept at 37 ± 0.5 °C with a thermostatically controlled heated table.
Renal blood flow (RBF) and aortic blood flow (ABF) were measured with an ultrasonic transit-time flowmeter (Transonic Systems, Inc., Ithaca, NY, USA). Data were recorded continuously with an analog-to-digital converter (PowerLab 4/25, ML845, AD Instruments, Bella Vista, Australia). Mean arterial pressure (MAP) was determined from the pulsatile signal. Aortic vascular conductance (AVC) and renal vascular conductance (RVC) were calculated by a ratio of ABF and RBF divided by MAP, and were expressed as percentage of baseline. Increasing doses of BTCI (0.3, 3, 30 and 300 µg·kg^−1, i.v.) were infused.
Results are presented as means ± S.E.M. The effects of infusion of Bk, Bk-related peptides and BTCI on cardiovascular parameters were analyzed by one-way ANOVA. […] A value of Student’s t-test p < 0.05 was considered to denote a significant difference.

[3] = peptide 120 µg·kg^−1 + BTCI 3 µg·kg^−1, i.v.
[4] = peptide 120 µg·kg^−1 i.v. + BTCI 3 µg·kg^−1 i.v.
[5] = peptide 120 µg·kg^−1 i.v., without BTCI

Substance: [Val]^1[Thr]^6-bradykinyl-Gln-Ser [Bk2]
- polydispersity, peptide [1]: lower than 0.15
- effect of association with BTCI on aortic vasodilation [2, 3]: potentiated
- effect of association with BTCI on renal vasodilation [2, 3]: potentiated renal
- aortic vasodilation (change in AVC) [2, 4]: 28% ± 2.6%
- change in mean arterial pressure (MAP) [2, 4]: −12 ± 2.7 mmHg
- renal vasodilation (change in RVC) [2, 4]: 29% ± 4.9%
- aortic vasodilation (change in AVC) [2, 5]: 19% ± 2.7%
- change in mean arterial pressure (MAP) [2, 5]: −12 ± 1.2 mmHg
- renal vasodilation (change in RVC) [2, 5]: 19% ± 3.0%
